Assay results taken from patent US20090192185A1, “MEDICAL PRODUCT” (Boehringer Ingelheim International GmbH, priority 2003, published 2009).

Key:
[1] = bronchodilator; cited from earlier work
[2] = Stability tests of FPD at 40° C. and 75% Rh (tests S1-S5, HBS1-HBS3), out of […]; assay type: physicochemical; settings: conclusion of the tests

Structure (SMILES) | Duration of action [1] | Sensitivity to moisture [2]
C[N+]1(C)[C@@H]2C[C@@H](OC(=O)C(O)(c3cccs3)c3cccs3)C[C@H]1[C@@H]1O[C@@H]12 [tiotropium bromide] | up to 24 hours | 
C[N+]1(C)[C@@H]2C[C@@H](OC(=O)C(O)(c3cccs3)c3cccs3)C[C@H]1[C@@H]1O[C@@H]12 [tiotropium] |  | extremely sensitive to moisture
